Test results published in PubChem BioAssay (NCI).
Several values for one entry are separate records, joined by “and”; a condition that tells them apart may be missing. Equal entries are not always repeated.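 Method: 48-hour compound exposure of cells in 96-well plates, five concentrations, linear interpolation of endpoints. Here, GI50 denotes the concentration required for 50% inhibition of growth. Definition used: TGI = concentration required for complete inhibition of growth.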

Experiments:
Experiment in all cases: NCI anticancer screen, dose series, 48 h
ACHN renal = test system: ACHN renal
LOX IMVI melanoma = test system: LOX IMVI melanoma
TK-10 renal = test system: TK-10 renal
CCRF-CEM leukemia = test system: CCRF-CEM leukemia
BT-549 breast = test system: BT-549 breast
T-47D breast = test system: T-47D breast
EKVX NSCLC = test system: EKVX NSCLC
SNB-75 CNS = test system: SNB-75 CNS
KM12 colon = test system: KM12 colon
SF-539 CNS = test system: SF-539 CNS

| Structure (SMILES) | TGI (ACHN renal) | TGI (LOX IMVI melanoma) | TGI (TK-10 renal) | TGI (CCRF-CEM leukemia) | TGI (BT-549 breast) | TGI (T-47D breast) | TGI (EKVX NSCLC) [µM] | TGI (SNB-75 CNS) | TGI (KM12 colon) | TGI (SF-539 CNS) | GI50 (ACHN renal) | GI50 (LOX IMVI melanoma) | GI50 (TK-10 renal) | GI50 (CCRF-CEM leukemia) | GI50 (BT-549 breast) | GI50 (T-47D breast) | GI50 (EKVX NSCLC) [µM] | GI50 (SNB-75 CNS) | GI50 (KM12 colon) | GI50 (SF-539 CNS) |
| --- | --- | --- | --- | --- | --- | --- | --- | --- | --- | --- | --- | --- | --- | --- | --- | --- | --- | --- | --- | --- |
| CC1(C)CCC(C)(C)c2c1ccc(O)c2Cc1c(O)ccc2c1C(C)(C)CCC2(C)C | 3.19 µM | 3.39 µM | 3.87 µM | 5.75 µM | 5.2 µM | 3.8 µM | 9.16 | 5.33 µM | 3.91 µM | 4.05 µM | – | – | – | – | – | – | – | – | – | – |
| C/C(=C\COc1c2c(cc3c1CCO3)OC1(C=C2)OC(CC/C(C)=C/COc2c3ccoc3cc3oc(=O)ccc23)C(C)(C)O1)CCC(O)C(C)(C)O (configuration not stated) | > 100 µM | > 100 µM | > 100 µM | > 100 µM | > 100 µM | > 100 µM | > 100 | > 100 µM | > 100 µM | > 100 µM | 15 µM | 28.2 µM | 78.8 µM | 8.78 µM | 16.7 µM | 3.13 µM | 5.93 | 21.1 µM | 11.7 µM | 63.5 µM |
| COc1ccc(OC)c(-c2cc(=O)c3c(OC)c(OC)c(OC)c(OC)c3o2)c1 | 71.3 µM | 76.1 µM | > 100 µM | > 100 µM | > 100 µM | 21.3 µM | > 100 | > 100 µM | – | > 100 µM | – | – | – | – | – | – | – | – | – | – |
| CC/C(=C(/c1ccc(O)cc1)c1ccc(OCCN2CCCCC2)cc1)c1ccc(OC)cc1 | 4.15 µM | 3.27 µM | 29.2 µM | 5.09 µM | 3.19 µM | 3 µM | 18.4 | 23.3 µM | 12.2 µM | 3.19 µM | 1.94 µM | 1.63 µM | 14.7 µM | 0.513 µM | 1.6 µM | 1.01 µM | 4.05 | 10.4 µM | 2.63 µM | 1.66 µM |
| COc1cc(-c2ncn(/C=C\C(=O)OC(C)C)n2)cc(C(F)(F)F)c1 | 12.9 µM and 13 µM | 0.39 µM and 0.524 µM | 6.91 µM and 5.42 µM | 36.1 µM and 12.5 µM | 1.03 µM and 1.69 µM | 15 µM and 12 µM | 19.5 | 0.999 µM and 0.904 µM | 12.2 µM and 4.32 µM | 0.225 µM and 0.187 µM | 0.0605 µM and 0.0657 µM | 0.0271 µM and 0.0287 µM | 0.271 µM and 0.123 µM | 0.0362 µM and 0.0446 µM | 0.0351 µM and 0.0343 µM | 0.12 µM and 0.0666 µM | 2.6 | 0.0748 µM and 0.121 µM | 0.368 µM and 0.309 µM | 0.0146 µM and 0.018 µM |
| O=C(Nc1nc2ccc(F)cc2s1)c1cccnc1Nc1ccc(Cl)cc1 | > 100 µM | > 28.8 µM | > 100 µM | > 100 µM | > 29.3 µM | > 29.2 µM | > 82.6 | 16.1 µM | 8.54 µM | > 27.9 µM | 3.08 µM | 2.66 µM | 5.11 µM | 1.54 µM | 2.77 µM | 1.04 µM | 2.45 | 2.36 µM | 2.61 µM | 2.89 µM |
| Cc1cc(O)cc(C)c1/C=C/c1cncc(-c2nn[nH]n2)c1 | > 25 µM | > 25 µM | > 25 µM | > 25 µM | > 25 µM | > 25 µM | > 25 | > 25 µM | > 25 µM | > 25 µM | > 25 µM | > 25 µM | > 25 µM | > 25 µM | > 25 µM | > 25 µM | > 25 | > 25 µM | > 25 µM | > 25 µM |
| Nc1c(C(=O)c2ccc(CCCN3CCOCC3)cc2)cnn1-c1ccc(F)cc1 | > 25 µM | > 25 µM | > 25 µM | > 25 µM | > 25 µM | > 25 µM | – | > 25 µM | > 25 µM | > 25 µM | > 25 µM | > 25 µM | > 25 µM | > 25 µM | > 25 µM | 10.3 µM | – | > 25 µM | > 25 µM | > 25 µM |
| O=S(=O)(Nc1cc(Cl)ccc1Cl)c1ccc(-c2cnc(C3CC3)o2)cc1 | 76.6 µM | > 100 µM | > 100 µM | > 100 µM | 14.9 µM | > 100 µM | 85.4 | 3.88 µM | 24.4 µM | 10.2 µM | 4.1 µM | 3.3 µM | 13.6 µM | 0.592 µM | 0.449 µM | 1.94 µM | 5.24 | 0.475 µM | 0.704 µM | 1.24 µM |
| O=c1oc2ccc(-n3c(=O)c4ccccc4c4ccccc4c3=O)cc2c2ccccc12 | > 100 µM | > 100 µM | > 100 µM | > 100 µM | > 100 µM | > 100 µM | > 100 | 85.7 µM | > 100 µM | > 100 µM | – | – | – | – | – | – | – | – | – | – |
| C=C(CN1CCN(c2cccc(C(F)(F)F)n2)CC1)c1ccc(C(=S)Nc2ccccc2N)cc1 | > 100 µM | 17.6 µM | > 100 µM | – | > 100 µM | 8.54 µM | > 100 | > 100 µM | > 100 µM | > 100 µM | 3.88 µM | 3.72 µM | 3.13 µM | – | 4.4 µM | 2.26 µM | 4.47 | 5.71 µM | 4.04 µM | 5.72 µM |
| COc1ccc(-c2nc(N3CCN(C(=O)C4CCCCC4)CC3)c3c4c(sc3n2)CCCC4)cc1 | > 100 µM | > 100 µM | 90.8 µM | > 100 µM | > 100 µM | > 100 µM | – | 33.9 µM | > 100 µM | > 100 µM | 23.9 µM | > 100 µM | 34.4 µM | > 100 µM | 57.5 µM | 20.6 µM | – | 14.1 µM | > 100 µM | 39.4 µM |
| O=C(CCC(C(=O)c1ccccc1)c1ccccc1)c1ccccc1 (configuration not stated) | > 100 µM | > 100 µM | > 100 µM | 77.2 µM | 86.7 µM | > 100 µM | – | > 100 µM | > 100 µM | > 100 µM | 31.3 µM | 20.7 µM | 38.6 µM | 3.97 µM | 7.92 µM | 7.69 µM | – | 27.2 µM | 3.94 µM | 52 µM |
| O=C(NCc1ccco1)c1ccc(NC2=C(Cl)C(=O)N(Cc3ccccc3)C2=O)cc1 | – | > 100 µM | 76.7 µM | – | 36.5 µM | > 100 µM | 72.5 | > 100 µM | 36.2 µM | 41 µM | – | > 100 µM | 30.7 µM | – | 17.9 µM | 41 µM | 31.2 | 41.9 µM | 17.2 µM | 22.2 µM |
